Molecules are shown by their SMILES.

The nature of the data set: gradient 5% acetonitrile 3 min, to 50% in 2 min, to 85% in 15 min, held 3 min, 100 µL/min. To be noted: column: Zorbax Extend-C18 2.1 x 50 mm; eluents: water / acetonitrile, 0.1% formic acid. In a few lines: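 Pure standards were run in mixtures of ~100 molecules by HPLC coupled to a quadrupole time-of-flight mass spectrometer. The column was a Zorbax Extend-C18 (2.1 × 50 mm, 1.8 μm) at 100 μL/min, with water and acetonitrile each containing 0.1% formic acid, in positive and negative ionization mode. Dead and dwell volumes were 40 μL and 900 μL. Retention time was taken from computationally picked adduct peaks, each manually inspected, with data collected over 3 months.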
`CC(=O)N[C@@H]1CN(C(=O)c2ccc3c(c2)OCO3)C[C@H]1CO` showed an RP-LC retention time of 571 s. The compound `COc1ccc(NC(=O)c2sc(-c3cn(C(C)C)c4ncccc34)nc2C)cc1OC` returned an RP-LC retention time of 944 s. `CC(C)n1cnc(S(=O)(=O)N2CCC(C(=O)Nc3ccc(F)cc3F)CC2)c1` returned an RP-LC retention time of 728 s. Next, `O=C(NC1CCCC1)C1CCc2sc(C(=O)N3CCCC3)cc2C1` (centres undefined): 777 s.

For the origin of these results see the METLIN SMRT retention time set (Domingo-Almenara et al. 2019).
